Values joined by “and” are separate entries in the source; they are usually repeats but may differ in a detail not shown here. Equal entries are not always repeated. Where two headings read alike, the source gives them in different places.
Legend:
HsMDH2 = details: Supplementary Table 1, cited from earlier work
HsMDH1 = tested on: HsMDH1; parameters: method as in earlier work; details: Supplementary Table 1; ref 10.1021/acs.jmedchem.7b01231; cited from earlier work
PfMDH [1] = target: T1, PfMDH (Plasmodium falciparum, UniProt Q6VVP7); details: Supplementary Table 2; ref 10.1021/jm070336k; cited from earlier work
T1 construct: The full-length WT PfMDH gene was cloned into pETM-13; made in house; host or cells: E. coli Rosetta 2 (DE3) pLysS

MDH = details: cited from earlier work
[2] = Precipitation / turbidity of compound in assay buffer (600 nm); assay type: physicochemical; details: activity screening buffer, 500 µM
Experimental: 1.3 µL of derivatives of 4-phenylthiazol-2-amine in 100% DMSO were mixed with 237.7 µL of a mastermix of WT PfMDH previously incubated with NAD+. The final compound concentration used in this screening was 500 µM in the presence of 0.5% (v/v) DMSO. The microplate was sealed with silver foil for 1-h incubation at 25–35 °C. Finally, reactions in both the samples and control wells were started upon the addition of 13.0 µL of 5 mM malate). At the end of the experiments, the reaction of the plate was spectrophotometrically assayed at 600 nm in order to identify turbidity due to the low solubility of the compound. All measurements were performed in duplicate.

PfMDH [3] = target: T1, PfMDH; test: Dynamic light scattering (DLS), aggregation; details: PfMDH samples incubated with compound
Experimental: Measurements were performed on Litesizer 500 (Anton Paar). Samples were incubated with the highest concentrations of compounds for 2 h at room temperature. Prior to measurements, samples were spun for 5 min at 16,000 rpm (Eppendorf Centrifuge 5415R) to remove aggregates.

PfMDH [4] = target: T1, PfMDH; test: Small-angle X-ray scattering (SAXS) of PfMDH with compounds; details: 1 mM compound; for radius of gyration Rg of PfMDH in complex: apo PfMDH 33.78 ± 5.51
Experimental: X-ray scattering experiments were performed using the laboratory SAXS system Xeuss 2.0 (XENOCS, Grenoble, France) equipped with a MetalJet D2 microfocus X-ray generator (0.134 nm wavelength). The protein solution at a concentration of 2.49 mg ml^−1 was mixed with 4PA derivatives at a concentration of 1 mM, incubated for 1 h at room temperature, and spun at 16,000 rpm (Eppendorf Centrifuge 5415R) to remove any potential aggregates prior to injection into the low-noise liquid sample cell. SAXS data were collected in 3–4 subsequent 10 min long frames using a Pilatus3R 1 M hybrid photon counting detector (Dectris, Switzerland). Data reduction and buffer subtraction procedures were performed using the Foxtrot package. Scattering profiles were assessed for radiation-damaged and averaged. Structural parameters were calculated in Primus from the ATSAS package. The distance distribution function was calculated using GNOM[58].

[5] = ref 10.1021/acs.jmedchem.7b01231

T1 sequence (Q6VVP7 entry or part of it): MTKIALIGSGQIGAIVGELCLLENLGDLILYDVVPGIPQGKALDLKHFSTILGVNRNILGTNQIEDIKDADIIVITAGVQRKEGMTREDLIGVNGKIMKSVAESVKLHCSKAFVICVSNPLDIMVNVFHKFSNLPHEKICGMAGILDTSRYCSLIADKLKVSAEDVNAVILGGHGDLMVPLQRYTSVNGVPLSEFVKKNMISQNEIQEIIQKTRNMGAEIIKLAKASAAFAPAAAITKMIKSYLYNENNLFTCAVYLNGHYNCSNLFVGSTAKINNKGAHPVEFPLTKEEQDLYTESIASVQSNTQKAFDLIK

COC(=O)c1cccc(NC(=O)CCOc2ccc(C(C)(C)CC(C)(C)C)cc2)c1 [Inhibitor 16c]
IC50 (HsMDH2; [5]): 1.06 ± 0.03 µM | IC50 (HsMDH1): 1.07 ± 0.07 µM

O=C1Cc2c([nH]c3ccc(Br)cc23)-c2ccccc2N1Cc1ccc(Cl)c(Cl)c1 [Inhibitor 4h]
IC50 (HsMDH2; ref 10.1016/j.ejmech.2009.10.018): 1.1 ± 0.1 µM

COC(=O)c1cccc(NC(=O)CCCOc2ccc(C(C)(C)CC(C)(C)C)cc2)c1 [Inhibitor 14b]
IC50 (HsMDH2; [5]): 1.11 ± 0.01 µM | IC50 (HsMDH1): 1.18 ± 0.08 µM

COc1ccc(CNC(=O)c2cc(=O)c3c(O)cc(OCCc4ccc(NC(=O)C(=O)O)c(OC)c4)cc3o2)cc1 [Inhibitor 7]
IC50 (PfMDH [1]): 2.66 ± 0.24 µM

O=c1c(O)c(-c2ccc(O)c(O)c2)oc2cc(O)cc(O)c12 [quercetin]
IC50 (MDH): 6 µM

Nc1nc(-c2ccc(Br)cc2)cs1 [compound 6a]
precipitation of compound in the buffer [2]: precipitation of compound was observed | aggregation in DLS (PfMDH [3]): no aggregation in DLS | Rg from Dmax analysis (PfMDH [4]; apo 33.93 ± 4): 34.52 ± 4.3 Å | Dmax (PfMDH [4]; apo 104.75): 113.74 Å | MW estimate of PfMDH complex (PfMDH [4]; apo 113.65): 91.175 kDa | radius of gyration Rg of PfMDH in complex (PfMDH [4]): 36.4 ± 3.15 Å and 36.4 Å

Nc1nc(-c2ccc([N+](=O)[O-])cc2)cs1 [compound 2a]
precipitation of compound in the buffer [2]: precipitation of compound was observed | aggregation in DLS (PfMDH [3]): no aggregation in DLS | radius of gyration Rg of PfMDH in complex (PfMDH [4]): 33.78 ± 0.83 Å and 33.8 Å

COc1cc(CCOc2cc(O)c3c(=O)cc(C(=O)O)oc3c2)ccc1NC(=O)C(=O)O [Inhibitor 4]
IC50 (PfMDH [1]): > 225 µM

CC(=O)c1c(O)c(C)c(O)c(Cc2c(O)c3c(c(C(=O)/C=C/c4ccccc4)c2O)OC(C)(C)C=C3)c1O [rottlerin]
IC50 (MDH): 0.7 µM

NC(=O)C(=O)O [Oxamate]
IC50 (PfMDH [1]): > 2000 µM

O=C(O)C(=O)Nc1ccc(CCOc2cc(O)c3c(=O)cc(C(=O)O)oc3c2)cc1 [Inhibitor 2]
IC50 (PfMDH [1]): > 241 µM

COC(=O)c1ccc(O)c(NC(=O)CCCOc2ccc(C(C)(C)CC(C)(C)C)cc2)c1 [Inhibitor 14c]
IC50 (HsMDH2; [5]): 1.11 ± 0.01 µM

Reference: article PMC8355244, “A fragment-based approach identifies an allosteric pocket that impacts malate dehydrogenase activity” (Communications Biology, 2021)
